# According to patent publication US20160280736A1, “CYCLIC PEPTIDE COMPOUND, AND PREPARATION METHOD, PHARMACEUTICAL COMPOSITION AND USE THEREOF” (HANGZHOU GUANYU BIO-MEDICAL CO., LTD., priority 2013, published 2016):
# Like-named read-outs stand apart in the source and are kept apart here.
# Legend:
# [1] = test system: N-87 (human gastric cancer cells); test: MTT cancer cell growth inhibition; format: cell-based; details: 72 h, N-87 cells, 72 hours incubation
# From the text: (§1) MTT assay principle is yellow MTT can penetrate membrane into the cell, succinic dehydrogenase of the mitochondria in living cells can make exogenous MTT reduction of insoluble in water of blue-violet acicular formazan for crystallization and deposition in the cell, crystallization can be dissolved dimethyl sulfoxide (DMSO) solution, detected its absorbance at 490 nm/570 nm wavelength by enzyme-linked immunosorbent assay, which can reflect the number of cells.
# (§2) Using DMEM+10% FBS culture medium or using 1640+10% FBS culture, respectively.
# (§3) Experimental group: 190 μl cell suspension+10 μl different concentrations of drugs (the final concentration is 10^−5˜10^−10 M)
# (§4) a) Cells were seeded in 96-well plates with the inoculation of 1500/well, 190 μl/hole, 37° C., 5% of CO2 incubator overnight;
# (§5) b) The next day each well was added 10 μl of different drugs. The final concentration of drug was 10^−5˜10^−10 M, three parallel holes; 37° C., 5% CO2 culture incubator for 72 hours incubation;
# (§6) c) Per well was added 20 μl 5 mg/ml of MTT, 37° C., 5% CO2 culture incubator for 4 hours incubation;
# (§7) d) The supernatant was discarded. Each well was added 100 μl of DMSO and oscillation;
# (§8) e) 570 nm readings. Calculate cell viability. GI50 calculation based on the results.
# [2] = target: T1, HDAC7 (Homo sapiens, UniProt Q8WUI4); test: HDAC biochemical activity measurement (fluorescent substrate deacetylation); details: HDAC7 enzyme, 37°, 30 minutes
# T1 sequence (Q8WUI4 1-952): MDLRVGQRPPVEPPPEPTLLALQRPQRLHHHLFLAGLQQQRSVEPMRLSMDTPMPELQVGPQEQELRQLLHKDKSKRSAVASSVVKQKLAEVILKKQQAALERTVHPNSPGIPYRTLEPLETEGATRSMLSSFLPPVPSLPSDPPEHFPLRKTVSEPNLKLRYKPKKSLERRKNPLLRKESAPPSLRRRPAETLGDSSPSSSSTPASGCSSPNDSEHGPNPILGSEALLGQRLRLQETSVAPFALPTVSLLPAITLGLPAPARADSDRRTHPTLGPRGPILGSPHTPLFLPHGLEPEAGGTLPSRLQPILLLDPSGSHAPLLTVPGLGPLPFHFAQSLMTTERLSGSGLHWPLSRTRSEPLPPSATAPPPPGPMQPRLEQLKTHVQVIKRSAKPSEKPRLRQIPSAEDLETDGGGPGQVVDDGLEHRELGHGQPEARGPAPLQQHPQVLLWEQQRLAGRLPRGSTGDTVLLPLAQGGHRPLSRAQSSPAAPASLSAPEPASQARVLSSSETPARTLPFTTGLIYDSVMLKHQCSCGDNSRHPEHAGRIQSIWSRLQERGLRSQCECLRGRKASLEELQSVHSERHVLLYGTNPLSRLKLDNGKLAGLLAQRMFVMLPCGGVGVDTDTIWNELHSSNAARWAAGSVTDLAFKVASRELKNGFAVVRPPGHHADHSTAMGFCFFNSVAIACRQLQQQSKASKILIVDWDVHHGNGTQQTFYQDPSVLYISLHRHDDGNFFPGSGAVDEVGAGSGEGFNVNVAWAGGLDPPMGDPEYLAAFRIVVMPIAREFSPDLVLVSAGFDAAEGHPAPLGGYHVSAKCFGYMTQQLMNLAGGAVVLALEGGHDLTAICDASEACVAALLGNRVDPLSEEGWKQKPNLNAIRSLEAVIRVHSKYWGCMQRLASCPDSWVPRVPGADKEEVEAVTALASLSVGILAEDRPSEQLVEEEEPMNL
# Experimental: Measurement principle: The chemical activity of the compound is determined according to the degree of deacetylation inhibition of the HDAC enzyme. […] After the substrate containing an acetylated lysine side chain and HDAC enzyme are labeled with a fluorescent label, the fluorescent substrate is de acetyl. The fluorescent labeled substrate is cleaved by the enzyme, and the fluorescent substance is released, which generates 460 nm emission light under the excitation of 360 nm light.
# (§9) Specific steps: HDAC substrate was diluted with reaction buffer to 200M (reaction concentration of 20M), the HDAC enzyme was diluted to the appropriate concentration, then added different concentrations of the test compounds and acted at 37 ? 30 minutes, and then added the same volume of 2-times concentration substrate developing solution (developer), incubated at room temperature for 15 minutes. Finally, the last reading measured with a microplate plate reader, excitation light was 360 nm, the emitted light was 460 nm, data processing software was Prime 4, and the results are shown in Table 1.
# [3] = test system: Hela (human cervical cancer cells); test: MTT cancer cell growth inhibition; format: cell-based; details: 72 hours incubation
# From the text: as §1, §2, §3, §4, §5, §6, §7, §8
# [4] = test system: BGC-823 (human gastric cancer cells); test: MTT cancer cell growth inhibition; format: cell-based; details: 72 hours incubation
# From the text: as §1, §2, §3, §4, §5, §6, §7, §8
# [5] = test system: lncap (prostate cancer cells); test: MTT cancer cell growth inhibition; format: cell-based; details: 72 hours incubation
# From the text: as §1, §2, §3, §4, §5, §6, §7, §8
# [6] = test system: DU145 (human prostate cancer cells); test: MTT cancer cell growth inhibition; format: cell-based; details: 72 hours incubation
# From the text: as §1, §2, §3, §4, §5, §6, §7, §8
# [7] = test system: A549 (human lung cancer cells); test: MTT cancer cell growth inhibition; format: cell-based; details: 72 hours incubation
# From the text: as §1, §2, §3, §4, §5, §6, §7, §8
# [8] = test system: MOLT-4 (human acute lymphoblastic leukemia cells); test: MTT cancer cell growth inhibition; format: cell-based; details: 72 hours incubation
# From the text: as §1, §2, §3, §4, §5, §6, §7, §8
# [9] = test system: MCF-7 (human breast cancer cells); test: MTT cancer cell growth inhibition; format: cell-based; details: 72 hours incubation, MCF-7 cells
# From the text: as §1, §2, §3, §4, §5, §6, §7, §8
# [10] = test system: HT1080 (human fibrosarcoma cells); test: MTT cancer cell growth inhibition; format: cell-based; details: 72 hours incubation
# From the text: as §1, §2, §3, §4, §5, §6, §7, §8
# [11] = target: T2, HDAC11 (Homo sapiens, UniProt Q96DB2); test: HDAC biochemical activity measurement (fluorescent substrate deacetylation); details: IC50 (μM) HDAC11, HDAC11 enzyme, 37°, 30 minutes
# T2 sequence (Q96DB2 1-347): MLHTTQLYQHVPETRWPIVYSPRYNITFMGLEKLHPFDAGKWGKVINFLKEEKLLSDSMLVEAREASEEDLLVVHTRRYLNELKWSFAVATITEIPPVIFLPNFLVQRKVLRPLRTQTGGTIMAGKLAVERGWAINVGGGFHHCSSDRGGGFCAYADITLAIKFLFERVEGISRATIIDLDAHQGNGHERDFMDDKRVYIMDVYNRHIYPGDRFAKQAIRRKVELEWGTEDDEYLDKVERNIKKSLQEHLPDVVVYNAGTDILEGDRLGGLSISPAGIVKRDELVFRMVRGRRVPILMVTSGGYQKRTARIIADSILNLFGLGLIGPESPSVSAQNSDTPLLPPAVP
# Experimental: (§10) Measurement principle: The chemical activity of the compound is determined according to the degree of deacetylation inhibition of the HDAC enzyme. This experiment measured the degree of deacetylation related to tumor proliferation and metastasis of HDAC1, HDAC2, HDAC3, HDAC8, HDAC11 five subtypes HDAC enzymes. After the substrate containing an acetylated lysine side chain and HDAC enzyme are labeled with a fluorescent label, the fluorescent substrate is de acetyl. The fluorescent labeled substrate is cleaved by the enzyme, and the fluorescent substance is released, which generates 460 nm emission light under the excitation of 360 nm light.
# as §9
# [12] = target: HDAC1 (Homo sapiens, UniProt Q13547); test: as above; details: HDAC1 enzyme, 37°, 30 minutes
# HDAC1, sequence (Q13547 whole entry, species assumed): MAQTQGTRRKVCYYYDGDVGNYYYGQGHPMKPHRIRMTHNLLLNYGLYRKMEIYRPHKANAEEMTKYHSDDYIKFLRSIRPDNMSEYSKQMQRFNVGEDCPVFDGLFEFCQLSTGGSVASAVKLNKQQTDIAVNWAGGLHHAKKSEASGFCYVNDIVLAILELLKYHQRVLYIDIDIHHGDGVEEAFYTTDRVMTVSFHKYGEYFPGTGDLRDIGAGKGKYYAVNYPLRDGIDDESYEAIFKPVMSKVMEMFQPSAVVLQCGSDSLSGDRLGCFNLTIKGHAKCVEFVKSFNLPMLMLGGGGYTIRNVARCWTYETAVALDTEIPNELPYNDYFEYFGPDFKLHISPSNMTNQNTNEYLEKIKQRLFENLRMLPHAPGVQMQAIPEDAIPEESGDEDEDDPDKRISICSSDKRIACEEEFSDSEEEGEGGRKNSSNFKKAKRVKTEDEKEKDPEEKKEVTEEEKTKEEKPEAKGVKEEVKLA
# Experimental: as §10, §9
# [13] = target: HDAC2 (Homo sapiens, UniProt Q92769); test: as above; details: HDAC2 enzyme, 37°, 30 minutes
# HDAC2, sequence (Q92769 whole entry, species assumed): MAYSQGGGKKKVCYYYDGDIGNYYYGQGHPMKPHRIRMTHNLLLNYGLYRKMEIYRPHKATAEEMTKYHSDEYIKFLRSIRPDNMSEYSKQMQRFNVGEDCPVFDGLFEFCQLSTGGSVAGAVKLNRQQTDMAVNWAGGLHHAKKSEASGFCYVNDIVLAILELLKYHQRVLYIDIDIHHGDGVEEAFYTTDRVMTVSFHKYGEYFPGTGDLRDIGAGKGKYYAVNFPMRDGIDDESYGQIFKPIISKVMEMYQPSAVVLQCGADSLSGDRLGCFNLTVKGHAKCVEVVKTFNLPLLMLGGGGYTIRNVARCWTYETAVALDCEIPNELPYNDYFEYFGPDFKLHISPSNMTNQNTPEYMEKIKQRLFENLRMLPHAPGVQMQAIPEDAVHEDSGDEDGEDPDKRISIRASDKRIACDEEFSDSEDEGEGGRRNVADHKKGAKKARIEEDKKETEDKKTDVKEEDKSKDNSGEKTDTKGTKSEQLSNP
# Experimental: as §10, §9
# [14] = test system: U937 (human leukemia cells); test: MTT cancer cell growth inhibition; format: cell-based; details: 72 hours incubation
# From the text: as §1, §2, §3, §4, §5, §6, §7, §8
# [15] = test system: PANC-1 (Pac-1, human pancreatic cancer cells); test: MTT cancer cell growth inhibition; format: cell-based; details: 72 hours incubation
# From the text: as §1, §2, §3, §4, §5, §6, §7, §8
# [16] = target: T3, HDAC8 (Homo sapiens, UniProt Q9BY41); test: HDAC biochemical activity measurement (fluorescent substrate deacetylation); details: HDAC8 enzyme, 37°, 30 minutes
# T3 sequence (Q9BY41 1-377): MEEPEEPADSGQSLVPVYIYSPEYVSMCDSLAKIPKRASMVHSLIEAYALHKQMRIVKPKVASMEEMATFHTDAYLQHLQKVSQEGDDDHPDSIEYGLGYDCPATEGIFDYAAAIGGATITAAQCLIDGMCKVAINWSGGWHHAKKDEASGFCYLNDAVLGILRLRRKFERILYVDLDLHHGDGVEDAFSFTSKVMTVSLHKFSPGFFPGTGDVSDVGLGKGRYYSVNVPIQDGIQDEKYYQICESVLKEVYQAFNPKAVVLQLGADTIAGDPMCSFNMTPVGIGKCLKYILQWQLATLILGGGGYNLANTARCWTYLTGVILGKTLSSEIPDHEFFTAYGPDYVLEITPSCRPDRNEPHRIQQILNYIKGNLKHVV
# Experimental: as §10, §9
# [17] = target: HDAC3 (Homo sapiens, UniProt O15379); test: as above; details: IC50 (μM) HDAC3, HDAC3 enzyme, 37°, 30 minutes
# HDAC3, sequence (O15379 whole entry, species assumed): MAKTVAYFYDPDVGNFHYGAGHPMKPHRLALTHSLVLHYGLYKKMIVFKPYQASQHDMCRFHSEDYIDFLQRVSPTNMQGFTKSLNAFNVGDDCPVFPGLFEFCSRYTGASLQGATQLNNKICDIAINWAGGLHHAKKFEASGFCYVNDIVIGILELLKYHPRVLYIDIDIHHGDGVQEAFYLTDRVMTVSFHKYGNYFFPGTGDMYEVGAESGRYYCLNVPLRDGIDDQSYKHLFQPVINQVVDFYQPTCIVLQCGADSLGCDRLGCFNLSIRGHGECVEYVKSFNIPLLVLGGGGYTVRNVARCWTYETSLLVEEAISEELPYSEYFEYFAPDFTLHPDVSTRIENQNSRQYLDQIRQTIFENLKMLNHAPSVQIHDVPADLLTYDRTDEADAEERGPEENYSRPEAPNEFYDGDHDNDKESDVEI
# HDAC3, sequence (Q9Y618 395-489 partner limits assumed, species assumed): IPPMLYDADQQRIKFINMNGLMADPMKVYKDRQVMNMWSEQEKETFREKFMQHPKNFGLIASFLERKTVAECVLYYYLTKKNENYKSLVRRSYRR
# Experimental: as §10, §9
# [18] = Hela cells, read-out: GI50 Hela
# [19] = BGC-823 cells, read-out: GI50 BGC8
# [20] = lncap cells, read-out: GI50 lncap
# [21] = DU145 cells, read-out: GI50 Du14
# [22] = A549 cells, read-out: GI50 A549
# [23] = MOLT-4 cells, read-out: GI50 Molt-
# [24] = HT1080 cells, read-out: GI50 HT10
# [25] = Homo sapiens, LNCaP, 72 h, lncap cells, read-out: GI50 lncap
# [26] = PANC-1 cells, read-out: GI50 PAN
smiles,measurement,setting,value
C/C=C1\NC(=O)c2ccc(F)c(n2)CNC(=O)C[C@@H](/C=C/CCSC(C)=O)OC(=O)[C@H](C(C)C)NC1=O [Compound 95],GI50,[1],23 nM
C/C=C1\NC(=O)c2cc(SC)cc(n2)CNC(=O)C[C@@H](/C=C/CCSC(C)=O)OC(=O)[C@H](C(C)C)NC1=O [Compound 224],IC50 (μM) HDAC7,[2],no activity
same,GI50,[3]; [18],0.067 µM
same,GI50,[4]; [19],0.038 µM
same,GI50,[5]; [20],0.034 µM
same,GI50,[6]; [21],0.051 µM
same,GI50,[7]; [22],0.058 µM
same,GI50,[8]; [23],0.033 µM
same,GI50,[9],43 nM
same,GI50,[10]; [24],0.095 µM
C/C=C1\NC(=O)c2cccc(n2)CNC(=O)C[C@@H](/C=C/CCSC(=O)CCCCCCC)OC(=O)[C@H](C(C)C)NC1=O [Compound 1],GI50,"[8]; Homo sapiens, MOLT-4, 72 h, drug concentration required for 50% of cell growth inhibition, read-out: GI50 (μM) Molt-",0.005 µM
C/C=C1\NC(=O)c2ccc(SC)c(n2)CNC(=O)C[C@@H](/C=C/CCSC(=O)CCCC)OC(=O)[C@H](C(C)C)NC1=O [Compound 158],IC50,[11],0.092 µM
same,IC50,[12],0.081 µM
same,IC50,[13],0.028 µM
same,GI50,"[3]; Homo sapiens, HeLa, 72 h, Hela cells, read-out: GI50 Hela",0.068 µM
same,GI50,"[4]; Homo sapiens, BGC-823, 72 h, BGC-823 cells, read-out: GI50 BGC8",0.032 µM
same,GI50,[5]; [25],0.043 µM
same,GI50,"[6]; Homo sapiens, DU-145, 72 h, DU145 cells, read-out: GI50 Du14",0.063 µM
same,GI50,"[7]; Homo sapiens, A549, 72 h, A549 cells, read-out: GI50 A549",0.037 µM
same,GI50,"[14]; Homo sapiens, U-937, 72 h",42 nM
same,GI50,"[9]; Homo sapiens, MCF7, 72 h",21 nM
same,GI50,"[10]; Homo sapiens, HT-1080, 72 h, HT1080 cells, read-out: GI50 HT10",0.076 µM
same,GI50,"[15]; Homo sapiens, PANC-1, 72 h, PANC-1 cells, read-out: GI50 PAN",0.023 µM
same,IC50,[16],0.043 µM
same,IC50,[17],0.053 µM
C/C=C1\NC(=O)c2ncc(SC)c(n2)CNC(=O)C[C@@H](/C=C/CCSC(C)=O)OC(=O)[C@H](C(C)C)NC1=O [Compound 217],IC50 (μM) HDAC7,[2],no activity
same,GI50,[4]; [19],0.035 µM
same,GI50,[5]; [20],0.034 µM
same,GI50,[6]; [21],0.027 µM
same,GI50,[7]; [22],0.072 µM
same,GI50,[14],91 nM
same,GI50,[8]; [23],0.099 µM
same,GI50,[9],63 nM
same,GI50,[10]; [24],0.021 µM
same,GI50,[15]; [26],0.073 µM
C/C=C1\NC(=O)c2nc(cc(SC)n2)CNC(=O)C[C@@H](/C=C/CCSC(C)=O)OC(=O)[C@H](C(C)C)NC1=O [Compound 216],IC50 (μM) HDAC7,[2],no activity
same,GI50,[3]; [18],0.076 µM
same,GI50,[4]; [19],0.066 µM
same,GI50,[5]; [20],0.016 µM
same,GI50,[6]; [21],0.029 µM
same,GI50,[14],86 nM
same,GI50,[8]; [23],0.046 µM
same,GI50,[9],55 nM
same,GI50,[10]; [24],0.058 µM
same,GI50,[15]; [26],0.021 µM
C/C=C1\NC(=O)c2nc(ccc2F)CNC(=O)C[C@@H](/C=C/CCSC(C)=O)OC(=O)[C@H](C(C)C)NC1=O [Compound 93],GI50,[1],28 nM
C/C=C1\NC(=O)c2nc(F)cc(n2)CNC(=O)C[C@@H](/C=C/CCSC(C)=O)OC(=O)[C@H](C(C)C)NC1=O [Compound 98],IC50 (μM) HDAC7,[2],no activity
same,GI50,"[3]; drug concentration required for 50% of cell growth inhibition, read-out: GI50 (μM) Hela",0.052 µM
same,GI50,"[4]; drug concentration required for 50% of cell growth inhibition, read-out: GI50 (μM) BGC8",0.052 µM
same,GI50,"[5]; drug concentration required for 50% of cell growth inhibition, read-out: GI50 (μM) lncap",0.025 µM
same,GI50,"[6]; drug concentration required for 50% of cell growth inhibition, read-out: GI50 (μM) Du14",0.042 µM
same,GI50,"[7]; drug concentration required for 50% of cell growth inhibition, read-out: GI50 (μM) A549",0.601 µM
same,GI50,"[8]; drug concentration required for 50% of cell growth inhibition, read-out: GI50 (μM) Molt-",0.025 µM
same,GI50,"[10]; drug concentration required for 50% of cell growth inhibition, read-out: GI50 (μM) HT10",0.083 µM
same,GI50,"[15]; drug concentration required for 50% of cell growth inhibition, read-out: GI50 (μM) PAN",0.083 µM
C/C=C1\NC(=O)c2cccc(n2)CNC(=O)C[C@@H](/C=C/CCSC(=O)CCCCCCC)OC(=O)[C@@H](C)NC1=O [Compound 236],GI50,[5]; [25],0.053 µM
